In general, IC50 refers to the concentration at which inhibition is half-maximal.

Experimental findings from patent publication US11419875B2, “Compounds and compositions for treating hematological disorders” (Aurigene Discovery Technologies Limited, priority 2017, dated 2022) are described below.

The structures appear in SMILES notation.

One series concerns MV4-11 cells. The experiment in a line: MV4-11 CellTiter Glo cell viability/proliferation assay (Example 2). Format: cell-based. Particulars: Homo sapiens, 72 hours, CellTiter Glo, read-out: MV4-11 IC50. The protocol: The CellTiter Glo Luminescent cell viability assay is a highly sensitive homogenous assay to determine the number of viable cells in culture based on quantitation of ATP levels in metabolically active cells. Addition of CTG reagent results in cell lysis and generation of a luminescent signal proportional to the amount of ATP present. The amount of ATP is proportional to the number of cells present. The luminescence is measured using a multilabel reader capable of measuring luminescence. An increase or decrease in cell numbers results in a concomitant change in luminescene level, indicating the effect of the test material on cellular proliferation.
CellTiter-Glo buffer was thawed and equilibrated to room temperature. Lyophilized CellTiter-Glo substrate was brought to room temperature. CTG reagent is prepared by mixing the CellTiter-Glo buffer (Promega Cat #G7572) into an amber bottle containing CellTiter-Glo substrate to reconstitute the lyophilized enzyme/substrate mixture. Both Buffer and the lyophilized substrate are supplied with the kit.
Add 1% Penicillin Streptomycin and 10% FBS to commercially available liquid IMDM (Iscove's Modified Dulbecco's Medium, Invitrogen Cat #12440046).
1. MV4-11 cells were counted and re-suspended to a density of 0.1×10^6 cells/ml in complete IMDM medium. 95 μL of this cell suspension was added per well of a 96-well plate (black plate with clear bottom) to seed ˜0.1×10^5 cells per well. The plates were incubated at 37° C. under a humidified atmosphere of 5% CO2 for ˜2 hours before compound addition. 2. Test compounds were dissolved in 100% DMSO to generate a 2/6/10/20 mM stock solution. A 200× concentration of the required final concentrations was prepared in DMSO. 10 μL of each concentration (200×) was then diluted in 90 μL of serum-free IMDM to prepare an intermediate concentration of 20× in medium. The DMSO concentration in this step was 10% (Intermediate dilution). 5 μL of each intermediate dilution was then added in triplicates to cells previously seeded in 96-well plate. The final DMSO concentration was 0.5% in the experimental wells. Cells treated with 0.5% DMSO served as a positive control. 100 μL of complete IMDM medium served as media blank for data analysis. 200 μL of 1×PBS was added in all corner wells of the assay plate to avoid evaporation of media in experimental wells. Plates were then incubated for 72 hours in an incubator with 5% CO2 at 37° C. 3. To terminate the assay, 50 μL of CTG reagent was added to each well and the plate was incubated at room temperature for 15 minutes on a shaker. The plate was read using the luminescence mode on a multilabel reader capable of measuring luminescence. The luminescence values were plotted against respective concentrations of the test item using GraphPad Prism to calculate the IC50 value for the test item. Percent Inhibition is Calculated as Follows: […]
Positive control wells contained cells, IMDM medium and 0.5% DMSO. Blank control wells contained IMDM medium alone.
On the technique in general: ATP-based viability assays read luminescence as a measure of living cells.
As for `O=C(Nc1cc2sc(N3CCCCC3)nc2nc1N1CCCCC1)c1cccc(-c2cn[nH]c2)n1`, the IC50 was 50 to 500 nM.
Take `O=C(Nc1cc2sc(N3CCOCC3)nc2nc1C1CC1)c1cccc(N2CC[C@H](O)C2)n1`: the IC50 is > 500 nM.
Still for that read-out and setting: to `Cn1cc(-c2cccc(C(=O)Nc3cc4sc(N5CCCCC5)nc4nc3N3CCCCC3)n2)cn1` belongs < 50 nM; to `Nc1ccc(-c2cccc(C(=O)Nc3cc4oc(N5CCOCC5)nc4nc3C3CC3)n2)cn1`, > 500 nM; to `Cc1ccc(C(=O)Nc2cc3cn(C)nc3cc2N2CCCCC2)nc1-c1cnn(C)c1`, < 50 nM.
Turning to `Cc1cc(-c2nc(C(=O)Nc3cnc4nc(N5CCOCC5)sc4c3)co2)ccn1`, the IC50 was < 50 nM.
Same read-out and setting: for `O=C(Nc1cc2oc(N3CCOCC3)nc2nc1N1CCCCC1)c1cccc(N2CC[C@H](O)C2)n1` the value was > 500 nM; for `Cc1cc(-c2nc(C(=O)Nc3cc4sc(N5CCOCC5)nc4nc3N3CC[C@@H](O)C3)co2)ccn1`, < 50 nM.
`N[C@H]1CCN(c2cccc(C(=O)Nc3cc4sc(N5CCCCC5)nc4nc3N3CCCCC3)n2)C1`: the IC50 was > 500 nM.
On the same count and under the same terms, to `Cc1cc(-c2nc(C(=O)Nc3cc4sc(N5CCOCC5)nc4nc3N3CC[C@H](O)C3)co2)ccn1` belongs < 50 nM; to `C[C@H](O)Cn1cc(-c2cccc(C(=O)Nc3cc4cn(C)nc4cc3C3CC3)n2)cn1`, < 50 nM; to `O=C(Nc1cc2sc(N3CCOCC3)nc2nc1N1CCCCC1)c1coc(N2CC[C@H](O)C2)n1`, < 50 nM.
Still for that read-out and setting: for `Cn1cc2cc(NC(=O)c3cccc(N4CC[C@H](O)C4)n3)c(N3CCCCC3)cc2n1` the value was 50 to 500 nM; for `O=C(Nc1cc2sc(N3CCOCC3)nc2nc1N1CCC1)c1cccc(N2CC[C@H](O)C2)n1`, > 500 nM; for `Cn1cc2cc(NC(=O)c3cccc(N4CCC(O)C4)n3)c(N3CCCCC3)cc2n1` (stereo not shown), 50 to 500 nM.
On to `C[C@H](O)Cn1cc(-c2cccc(C(=O)Nc3cc4sc(N5CCOCC5)nc4nc3N3CCCCC3)n2)cn1`, for which the IC50 is < 50 nM.
On the same count and under the same terms, to `Cc1ccc(C(=O)Nc2cc3cn(C)nc3cc2N2CCCCC2)nc1-c1ccc(N)nc1` belongs < 50 nM; to `Cn1cc(-c2cccc(C(=O)Nc3cc4sc(N5CCOCC5)nc4nc3N3CCCCC3)n2)cn1`, < 50 nM.
Consider `O=C(Nc1cc2sc(N3CCOCC3)nc2nc1N1CCCCC1)c1cccc(N2CC[C@H](O)C2)n1`, for which the IC50 is > 500 nM.
On to `O=C(Nc1cc2oc(N3CCOCC3)nc2nc1N1CCCCC1)c1cccc(-c2cn[nH]c2)n1`, for which the IC50 was < 50 nM.
`O=C(Nc1cc2sc(N3CCCCC3)nc2nc1N1CCCCC1)c1cccc(N2CC[C@H](O)C2)n1`: the IC50 is > 500 nM.
In the case of `O=C(Nc1cc2oc(N3CCCCC3)nc2nc1N1CCCCC1)c1cccc(-c2cn[nH]c2)n1`, the concentration for half-maximal inhibition (IC50) was < 50 nM.
With `Cc1cc(-c2nc(C(=O)Nc3cc4oc(N5CCOCC5)nc4nc3N3CC[C@@H](O)C3)co2)ccn1` [drawing 32], the IC50 was < 50 nM.
`Cc1cc(-c2nc(C(=O)Nc3cc4oc(N5CCOCC5)nc4nc3N3CC[C@H](O)C3)co2)ccn1`: the IC50 is < 50 nM.
Regarding `Nc1ccc(-c2cccc(C(=O)Nc3cnc4nc(N5CCOCC5)sc4c3)n2)cn1`, the IC50 was > 500 nM.
As to `Nc1ccc(-c2cccc(C(=O)Nc3cc4cn(C5CCCC5)nc4cc3N3CCOCC3)n2)cn1`, the concentration for half-maximal inhibition (IC50) is < 50 nM.
The same measure, in the same setting: for `Cc1cc(-c2nc(C(=O)Nc3cc4sc(N5CCOCC5)nc4nc3C3CC3)co2)ccn1` the value was < 50 nM; for `C[C@H](O)Cn1cc(-c2cccc(C(=O)Nc3cc4cn(C)nc4cc3N3CCCCC3)n2)cn1`, < 50 nM.
On the same count and under the same terms, for `Cn1cc2cc(NC(=O)c3cccc(N4CC[C@@H](O)C4)n3)c(N3CCCCC3)cc2n1` the value was > 500 nM.
`Cc1cc(-c2nc(C(=O)Nc3cc4cn(C)nc4cc3C3CC3)co2)ccn1`: the IC50 is < 50 nM.
Take `Cc1nn(C)c2cc(N3CCC(CO)CC3)c(NC(=O)c3coc(-c4ccnc(N)c4)n3)cc12`: the half-inhibitory concentration (IC50) was < 50 nM.
`C[C@H](O)Cn1cc(-c2cccc(C(=O)Nc3cc4sc(N5CCOCC5)nc4nc3C3CC3)n2)cn1`: the concentration for half-maximal inhibition (IC50) is < 50 nM.
Turning to `Nc1ccc(-c2cccc(C(=O)Nc3cc4sc(N5CCOCC5)nc4cn3)n2)cn1`, the concentration for half-maximal inhibition (IC50) fell in the range of 50 to 500 nM.
As to `N[C@H]1CCN(c2cccc(C(=O)Nc3cc4sc(N5CCOCC5)nc4nc3N3CCCCC3)n2)C1`, the IC50 was > 500 nM.

For the next series, the system named is MV4-11 cells. Briefly: AML xenograft model MV4-11, in vivo tumor growth inhibition. Particulars: 100 mg/kg i.p. once daily, 21 days. On the procedure:
ND-2158 at 100 mpk was used as a control.
MV4-11 cells were grown in Iscove's Modified Dulbecco's medium supplemented with 10% FBS and 1% penicillin streptomycin. To establish tumors, 15×10^6 MV4-11 cells were injected subcutaneously in 200 μl of 1:1 HBSS and ECM gel into the right flank of the athymic nude mice. Animals were randomized based on tumor volumes. […] Treatments were initiated when the average tumor volume sizes were 333 mm^3. Tumor volumes were measured three times a week and body weights were monitored daily.
Consider `NC(=O)[C@@H](O)C[C@H]1CCc2sc3ncnc(OC4CCC(N5CCOCC5)CC4)c3c21` (stereo partly shown) [ND-2158, reference compound], for which the “tolerability (clinical signs, gross pathological changes)” value is “well tolerated without any treatment related clinical signs and gross pathological changes”; the tumor growth inhibition came out at 68%.

The series is the same for the next values; noted with them: all treatment groups, 21 days, FIG. 4.
In the case of `NC(=O)[C@@H](O)C[C@H]1CCc2sc3ncnc(OC4CCC(N5CCOCC5)CC4)c3c21` (stereo partly shown) [ND-2158, reference compound], the body weight entry is recorded as “No body weight reduction was observed”.
